Inconclusive results and toxic doses are left out.
Test system: P388 leukemia ip, CD2F1 mice, survival T/C
Test: NCI In Vivo Anticancer Drug Screen. Data for tumor model P388 Leukemia (intraperitoneal) in CD2F1 (CDF1) mice
Conditions: endpoint: median survival time, higher = longer survival
Method in brief: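 Mice carrying the transplanted tumor received test compound or vehicle. Survival was recorded in each group, and the value is the treated-group measurement divided by that of the vehicle-treated control group.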

[1] = dose: 12.5 mg/kg/injection, schedule: Q01DX009 (ip), vehicle: Klucel (hydroxypropylcellulose) (HPC)
[2] = dose: 25.0 mg/kg/injection, schedule: Q01DX009 (ip), vehicle: Klucel (hydroxypropylcellulose) (HPC)
[3] = dose: 50.0 mg/kg/injection, schedule: Q01DX009 (ip), vehicle: Klucel (hydroxypropylcellulose) (HPC)
[4] = dose: 100.0 mg/kg/injection, schedule: Q01DX009 (ip), vehicle: Klucel (hydroxypropylcellulose) (HPC)
[5] = dose: 50.0 mg/kg/injection, schedule: Q04DX002 (ip), vehicle: saline with Tween-80
[6] = dose: 50.0 mg/kg/injection, schedule: Q01DX005 (ip), vehicle: Klucel (hydroxypropylcellulose) (HPC)
[7] = dose: 100.0 mg/kg/injection, schedule: Q01DX005 (ip), vehicle: Klucel (hydroxypropylcellulose) (HPC)
[8] = dose: 200.0 mg/kg/injection, schedule: Q01DX005 (ip), vehicle: Klucel (hydroxypropylcellulose) (HPC)
[9] = dose: 200.0 mg/kg/injection, schedule: Q01DX009 (ip), vehicle: Klucel (hydroxypropylcellulose) (HPC)

`CN(C)c1ccc2c(c1)Sc1cc(N(C)C)ccc1N2C(=O)c1ccccc1` was tested. Which T/C [1] did it give?
The T/C was 105 % of control.

What about the T/C [2] of the same compound?
The T/C was 103 % of control.

And the T/C [3]?
The T/C was 102 % of control.

What about the T/C [4] of the same compound?
Its T/C is 98 % of control.

With `C[As](C)SCCO` as the compound, how does the T/C (dose: 12.5 mg/kg/injection, schedule: Q01DX005 (ip), vehicle: saline with Tween-80) read?
Its T/C is 110 % of control.

What about the T/C (dose: 25.0 mg/kg/injection, schedule: Q01DX005 (ip), vehicle: saline with Tween-80) of the same compound?
Its T/C is 115 % of control.

And the T/C (dose: 50.0 mg/kg/injection, schedule: Q01DX005 (ip), vehicle: saline with Tween-80)?
Its T/C is 117 % of control.

And the T/C [5]?
Its T/C is 109 % of control.

Which results are given for `Brc1c(C(Br)Br)ccc2ccccc12`?
T/C [6]: 103 % of control; T/C [7]: 105 % of control; T/C [8]: 109 % of control

Which T/C (dose: 8.0 mg/kg/injection, schedule: Q01DX005 (ip), vehicle: saline + Tween-80 + alcohol) does the source give for `CC1=CC[C@@H]2[C@@H](CC[C@@]2(C)O)C(C)(C)[C@H]1CC[C@@H]1[C@@]2(C)CC[C@@H](O)C(C)(C)O[C@@H]2CC[C@]1(C)O` here?
The T/C was 103 % of control.

And the T/C (dose: 16.0 mg/kg/injection, schedule: Q01DX005 (ip), vehicle: saline + Tween-80 + alcohol)?
The T/C was 103 % of control.

What about the T/C (dose: 32.0 mg/kg/injection, schedule: Q01DX005 (ip), vehicle: saline + Tween-80 + alcohol) of the same compound?
Its T/C is 97 % of control.

And the T/C (dose: 64.0 mg/kg/injection, schedule: Q01DX005 (ip), vehicle: saline + Tween-80 + alcohol)?
The T/C was 96 % of control.

How did the T/C [1] turn out when `O/N=C(\C[P+](c1ccccc1)(c1ccccc1)c1ccccc1)c1ccccc1` was run?
The T/C was 100 % of control.

And the T/C [2]?
Its T/C is 99 % of control.

And the T/C [3]?
Its T/C is 102 % of control.

What does the source list for `COc1cc2c(cc1OC)-c1c3c(cc4c1[C@H](C2)N(C)CC4)OCO3`?
T/C (dose: 200.0 mg/kg/injection, schedule: Q04DX003 (ip), vehicle: saline with Tween-80): 110 % of control; T/C (dose: 400.0 mg/kg/injection, schedule: Q04DX003 (ip), vehicle: saline with Tween-80): 110 % of control

With `COC(=O)C1=C(N)SS/C1=C/[N+](=O)[O-]` as the compound, how does the T/C [6] read?
The T/C was 106 % of control.

And the T/C [7]?
The T/C was 103 % of control.

What about the T/C [8] of the same compound?
The T/C was 101 % of control.

What does the source list for `CSC(=S)/N=c1\ccccn1C`?
T/C (dose: 25.0 mg/kg/injection, schedule: Q04DX002 (ip), vehicle: saline with Tween-80): 102 % of control; T/C [5]: 99 % of control; T/C (dose: 100.0 mg/kg/injection, schedule: Q04DX002 (ip), vehicle: saline with Tween-80): 102 % of control

What does the source list for `C1CN(C[C@H]2CO[C@H](CN3CCOCC3)CO2)CCO1`?
T/C (dose: 50.0 mg/kg/injection, schedule: Q01DX005 (ip), vehicle: saline): 91 % of control; T/C (dose: 100.0 mg/kg/injection, schedule: Q01DX005 (ip), vehicle: saline): 106 % of control; T/C (dose: 200.0 mg/kg/injection, schedule: Q01DX005 (ip), vehicle: saline): 110 % of control

`CC(C)(C)N=C(CCSc1ccccc1)Nc1ccccc1Cl` was tested. Which T/C (dose: 50.0 mg/kg/injection, schedule: Q01DX009 (ip), vehicle: saline with Tween-80) did it give?
Its T/C is 108 % of control.

What about the T/C (dose: 100.0 mg/kg/injection, schedule: Q01DX009 (ip), vehicle: saline with Tween-80) of the same compound?
Its T/C is 109 % of control.

And the T/C (dose: 200.0 mg/kg/injection, schedule: Q01DX009 (ip), vehicle: saline with Tween-80)?
Its T/C is 113 % of control.

With `Cc1cc(NCCCCNCCCNc2cc(C)nc3cc(N)ccc23)c2ccc(N)cc2n1` as the compound, how does the T/C (dose: 12.5 mg/kg/injection, schedule: Q01DX009 (ip), vehicle: other) read?
Its T/C is 150 % of control.

What about the T/C (dose: 25.0 mg/kg/injection, schedule: Q01DX009 (ip), vehicle: other) of the same compound?
Its T/C is 175 % of control.

Which results are given for `CC(C)N1CC(CCN2CCOCC2)C(c2ccccc2)(C2CCCC2)C1=O` (stereo not given)?
T/C [3]: 106 % of control; T/C [4]: 101 % of control; T/C [9]: 108 % of control

Which T/C [3] does the source give for `O=Cc1ccc(S(=O)(=O)F)cc1` here?
The T/C was 99 % of control.

And the T/C [4]?
The T/C was 97 % of control.

What about the T/C [9] of the same compound?
Its T/C is 93 % of control.
